Positions of bridges follow the written chain, without caps; N, C: chain ends. Non-standard residues stand in square brackets, D forms with d. Residues, ends and D or L forms follow the SMILES beside them. Groups on a side chain read outwards from the residue. Triazole bridges read from a SMILES are 1,4-linked. *: point of attachment. DOTA = O=C(O)CN1CCN(CC(=O)O)CCN(CC(=O)*)CCN(CC(=O)O)CC1; Lys(N3) = [N-]=[N+]=NCCCC[CH](N)C(=O)O; Nle = CCCC[CH](N)C(=O)O; Pra = C#CC[CH](N)C(=O)O; PEG2 = NCCOCCOCCC(=O)O
How the values were obtained:
metastatic melanoma = settings: patients, cited from earlier work
MCR1 expression = assay: Pharmacological enhancement of MCR1 expression in human melanoma cells by drug incubation; type: cell-based; settings: for MCR1 expression: metastatic melanoma cells
Description: Melanoma if detected early can be cured by surgery, but metastatic melanoma is lethal. New therapies (e.g., immunotherapy; BRAF inhibition, BRAFi) and combinations extend life, but low response rates, acquired drug resistance, and serious side effects are major challenges to improving outcomes for disseminated disease (5 y survival 17%). Peptide-based radionuclide therapy targeted to the melanocortin-receptor type 1 (MCR1-RT) has long been considered a promising alternative; and MCR1-RT has achieved complete responses in mouse models (B16). However, MCR1 expression is heterogeneous/low in human melanoma, and as a result, no previous MCR1-RT study has employed successfully human melanoma cell xenografts. […] This introduces innovative Pb-specific chelator combined with a “click-cyclized” peptide (PSC-C-MCR1) to improve tumor:kidney ratio of radionuclide uptake 7-fold. An effective therapy for metastatic melanoma is developed that combines MCR1-RT with pharmacological agents (PBA; BRAFi/MEKi; HDACi) that enhance MCR1 expression.
Melanoma is the fastest growing cancer incidence in the United States. Surgery combined with radiation can be curative at early stages. However, metastatic melanoma is almost uniformly fatal (5-yr survival 17%). Recent breakthrough targeted MAPKi therapies (e.g., BRAFi) and immunotherapies (e.g., PD-1 inhibitors) have improved outcomes, but low response rates, acquired drug resistance, and adverse side effects limit quality of life for metastatic melanoma patients. For example, approval of immune-checkpoint inhibitor ipilimumab was based on an improvement in overall survival of only 3.7 months (overall response <15%). Combination immunotherapies have improved response (up to 61%), but grade 3/4 adverse events (up to 55%) often lead to therapy discontinuation (up to 36%). For targeted therapies, BRAF inhibitor vemurafenib was approved based on overall survival at 6 months of 84% vs 64% in the control arm (dacarbazine). Combining BRAFi with MEK inhibitors (MEKi) has led to modest improvements, yet recurrence is virtually inevitable. The mechanisms of acquired drug resistance are complex, and include altered/alternative oncogenic pathways; tumor heterogeneity; and enhanced DNA repair. Melanocortin-receptor type 1 targeted radionuclide therapy (MCR1-RT) has long been considered a promising alternative treatment for melanoma; and MCR1-targeted α-particle therapy (^212Pb) has achieved complete responses in mice bearing mouse (B16) tumors that highly express MCR1. However, these studies have been confined primarily to mouse melanoma (B16) cells because MCR1 expression is heterogeneous/low in human melanoma.
Combination therapies for metastatic melanoma are emerging as common practice (e.g., BRAFi plus MEK; and combination immunotherapies), but melanoma almost invariably develops resistance. MCR1-RT has long been considered a promising alternative, but previous therapy studies have been limited to the use of B16 mouse melanoma cells that highly express the MCR1 protein, because native MCR1 expression in human melanoma is heterogeneous/low.

[1] = Tumor and kidney accumulation of click cyclized MCR1 peptide in mouse studies; type: in vivo; settings: kidney, iv, 90 min. post i.v. injection
Description: (§1) The peptide backbone selected for the proposed investigation is based on a variant that was introduced previously with the addition of new evidence for improved internalization with the inclusion of a short polyethylene glycol linker between the chelator and the peptide backbone (FIG. 17). […] This peptide performance represents a 7-fold improvement in tumor:kidney ratio compared to the Re-cyclized peptide used previously. The use of the Re-cyclized peptide is for comparison to the previously published alpha-particle MCR1-targeted therapy study (using B16 mouse melanoma tumors). (Leachman S A, Cassidy P B, Chen S C, Curiel C, Geller A, Gareau D, Pellacani G, Grichnik J M, Malvehy J, North J, Jacques S L, Petrie T, Puig S, Swetter S M, Tofte S, Weinstock M A. Methods of Melanoma Detection. Cancer Treat Res. 2016; 167:51-105.) Thus, the DOTA-C-MCR1 (published previously) and new PSC-C-MCR1 peptides shown in FIG. 17 are used to take advantage of the observed improved tumor:kidney ratio.
(§2) Preliminary data support the hypothesis that co-injection of PBA with [^203Pb]MCR1-targeted peptides can reduce kidney accumulation of the radiopeptide (FIGS. 14A-B), while improving tumor accumulation in mice bearing human metastatic melanoma tumors (FIG. 14B imaging; FIGS. 15A-B therapy). […]

[2] = tested on: B16 mouse metastatic melanoma tumor model; assay: as above; type: in vivo; settings: i.v. injection
Description: as §1, §2

[3] = tested on: B16 mouse metastatic melanoma tumor model; settings: 60 m post injection; cited from earlier work
[4] = tested on: BRAFi-resistant A375VR cells; assay: Clonogenic survival of BRAFi-resistant melanoma cells; type: cell-based, human; settings: 5 μM vemurafenib in the absence of PBA
Experimental: FIGS. 13A-13B. PBA treatment promotes cell death of BRAFi-resistant metastatic melanoma and upregulates MCR1 expression in a time dpe. (A) BRAFi-resistant A375VR cells were incubated with 5 μM vemurafenib in combination with ER-stress-relieving drug 4-PBA for up to 6 days. […] (B) Flow cytometry analysis of MCR1 expression in A2058 and A375 malignant melanoma cells. Cells were treated with 3 mmole 4-PBA for 4 h and 24 h (n=3). The treated and untreated (control) cells were stained with anti-MC1R-phycoerythrin (PE) monoclonal antibody conjugate. Fluorescence intensity was corrected by auto-fluorescence of cells without staining and data were expressed as relative fluorescence intensity (IF) (vs. control)±SD.
Accumulation of misfolded-proteins causes upregulation and detachment of ER resident protein GRP78 from ER sensors proteins—activating the unfolded protein response (UPR) and downstream signaling pathways (including autophagy). […] Thus, the potential for a pharmacological treatment that would sensitize BRAFi-resistant cells to BRAFi by reducing ER-stress was considered. BRAFi-resistant A375VR melanoma cells were incubated with BRAFi vemurafenib alone and in combination with ER-stress relieving PBA.

MC1R expression = assay: Real-time PCR analysis of MC1R expression in melanoma cells; type: cell-based, human; settings: substantiated by flow cytometry and radiopeptide binding
Experimental: FIG. 10. Real-time PCR analysis of MC1R expression in A2058 and MEWO melanoma cells. A2058 cells were exposed to BRAFi GSK2118436, MEKi GSK1120212 and HDACi PBA for 24 h. Similarly, MEWO cells were treated with PBA and SAHA. Total RNA was isolated and reverse transcripted to cDNA. Real-time PCR was performed using 50 ng of each cDNA sample with labeled primer VIC-MC1R and FAM-NADPH. mRNA fold changes were calculated by ΔΔCt method and expressed as (n=3; Mean±SEM).
qPCR measurements are included to measure the change in MCR1 mRNA with changes in the concentration and incubation time for each drug and combinations (FIG. 10). These experiments are carried out as in FIG. 10 according to manufacturers' protocols, cells are seeded into 6-well plates until ˜80% confluent. After drug treatments, total RNA is isolated (Qiagen RNeasy Mini Kit). 1 μg of total RNA from each cell sample is used for reverse transcription using a high capacity reverse transcription kit (Applied Biosystem). cDNA samples are kept at −80° C. until use. Upon use, cDNA templates are employed in the qRT-PCR using a Taqman Gene Expression Assay for human MC1R (Assay ID: Hs00267167_s1). Human 18S (Assay ID: Hs99999901_s1) and human GAPDH (Assay ID: Hs03929097_g1) are used as housekeeping gene controls. […] Reactions are carried out in Applied Biosystem 7900HT. mRNA level is calculated by comparative ΔΔCt method.

## ipilimumab: immune-checkpoint inhibitor
Metastatic melanoma; basis of approval
  improvement in overall survival: 3.7 months
Metastatic melanoma
  overall response: < 15%

## CC(C)(C)c1nc(-c2cccc(NS(=O)(=O)c3c(F)cccc3F)c2F)c(-c2ccnc(N)n2)s1 [dabrafenib]
MCR1 expression
  MCR1 expression: upregulate MCR1 expression

## CCCCC(NC(C)=O)C(=O)NC1Cc2cn(nn2)CCCCC(C(=O)NC(CCCCNC(=O)CCOCCOCCNC(=O)CN2CCN(CC(=O)O)CCN(CC(=O)O)CCN(CC(=O)O)CC2)C(N)=O)NC(=O)C(Cc2c[nH]c3ccccc23)NC(=O)C(CCCNC(=N)N)NC(=O)C(Cc2ccccc2)NC(=O)C(Cc2c[nH]cn2)NC1=O (stereo not shown) [[^68Ga]DOTA-C-MCR1, metal not drawn] (Ac-[Nle][Pra]HFRW[Lys(N3)]K([PEG2-DOTA])-NH2; triazole 2-7; configuration not given here)
[1]
  tissue uptake at 1.5 h: < 5 %ID/g
[2]
  injected dose per gram (tumor): up to 16 % ID/g
[3]
  tumor:kidney ratio: 3.4

## O=C(c1ccc(F)c(F)c1Nc1ccc(I)cc1F)N1CC(O)([C@@H]2CCCCN2)C1 [cobimetinib]
MCR1 expression
  MCR1 expression: upregulate MCR1 expression

## CCCS(=O)(=O)Nc1ccc(F)c(C(=O)c2c[nH]c3ncc(-c4ccc(Cl)cc4)cc23)c1F [vemurafenib]
MCR1 expression
  MCR1 expression: upregulate MCR1 expression
[4]
  clonogenic survival: No change in clonogenic survival
Metastatic melanoma; approval trial
  overall survival at 6 months: 84%
Metastatic melanoma; metastatic melanoma
  slowing of tumor progression: about 5.3 months

## O=C(CCCCCCC(=O)Nc1ccccc1)NO [Vorinostat]
MCR1 expression; human melanoma cells, incubation with drug
  enhancement of MCR1 expression: up to 12 fold
MC1R expression
  MCR1 expression by RT-PCR: Enhanced expression of MCR1

Reference: patent publication US11576987B2, “Compositions and methods of treating melanoma” (UNIVERSITY OF IOWA RESEARCH FOUNDATION, priority 2016, dated 2023)
